In patent US20240041991A1, “STABLE LIQUID DISPERSINB COMPOSITIONS” (KANE BIOTECH INC., priority 2020, published 2024):
Read-outs that look alike come from different tables or passages of the source. Marks after values point to notes of the source that are not given here.

System: DispersinB
Assay type: biochemical, Aggregatibacter actinomycetemcomitans
Details: polyol % as in label
Description: Samples from each formula was incubated at 3 different temperatures (42° C., 52° C. and 62° C.) for 3 hours. Following a 3 hour incubation, the samples were brought to room temperature for enzymatic activity assay.
Two-tailed paired T-test was performed by to compare each polyol containing treatment with the treatment devoid of polyol. Treatment with probability values (p) less than 5% (0.05) was considered significant.

With `OC[C@@H](O)[C@@H](O)CO` [Erythritol, (2R,3S)-Butane-1,2,3,4-tetrol] the “% enzymatic activity of DispersinB (Mean)” value (“% enzymatic activity” below) (4° C., freshly made control without polyol = 100%, listed as 1% Erythritol) was 105%, the “% enzymatic activity” value (4° C., freshly made control without polyol = 100%, listed as 2.5% Erythritol) was 97% and the “% enzymatic activity” value (4° C., freshly made control without polyol = 100%, listed as 5% Erythritol) was 101%. The “% enzymatic activity” value (4° C., freshly made control without polyol = 100%, listed as 10% Erythritol) was 97%, the “% enzymatic activity” value (4° C., freshly made control without polyol = 100%, listed as 15% Erythritol) was 96% and the “% enzymatic activity” value (4° C., freshly made control without polyol = 100%, listed as 20% Erythritol) was 104%. The “% enzymatic activity” value (4° C., freshly made control without polyol = 100%, listed as 25% Erythritol) was 109%, the “% enzymatic activity” value (42° C. for 3 hours, control without polyol = 100%, listed as 1% Erythritol) was 109* % and the “% enzymatic activity” value (42° C. for 3 hours, control without polyol = 100%, listed as 2.5% Erythritol) was 107* %. For the same compound, the “% enzymatic activity” value (42° C. for 3 hours, control without polyol = 100%, listed as 5% Erythritol) was 106* %, the “% enzymatic activity” value (42° C. for 3 hours, control without polyol = 100%, listed as 10% Erythritol) was 107* % and the “% enzymatic activity” value (42° C. for 3 hours, control without polyol = 100%, listed as 15% Erythritol) was 119* %. For the same compound, the “% enzymatic activity” value (42° C. for 3 hours, control without polyol = 100%, listed as 20% Erythritol) was 113* %, the “% enzymatic activity” value (42° C. for 3 hours, control without polyol = 100%, listed as 25% Erythritol) was 117* % and the “% enzymatic activity” value (52° C. for 3 hours, control without polyol = 100%, listed as 1% Erythritol) was 6* %. For the same compound, the “% enzymatic activity” value (52° C. for 3 hours, control without polyol = 100%, listed as 2.5% Erythritol) was 20* %, the “% enzymatic activity” value (52° C. for 3 hours, control without polyol = 100%, listed as 5% Erythritol) was 33* % and the “% enzymatic activity” value (52° C. for 3 hours, control without polyol = 100%, listed as 10% Erythritol) was 58* %. The “% enzymatic activity” value (52° C. for 3 hours, control without polyol = 100%, listed as 15% Erythritol) was 78* %, the “% enzymatic activity” value (52° C. for 3 hours, control without polyol = 100%, listed as 20% Erythritol) was 95* % and the “% enzymatic activity” value (52° C. for 3 hours, control without polyol = 100%, listed as 25% Erythritol) was 121* %. The “% enzymatic activity” value (62° C. for 3 hours, control without polyol = 100%, listed as 1% Erythritol) was 0%, the “% enzymatic activity” value (62° C. for 3 hours, control without polyol = 100%, listed as 2.5% Erythritol) was 0% and the “% enzymatic activity” value (62° C. for 3 hours, control without polyol = 100%, listed as 5% Erythritol) was 0%. The “% enzymatic activity” value (62° C. for 3 hours, control without polyol = 100%, listed as 10% Erythritol) was 0%, the “% enzymatic activity” value (62° C. for 3 hours, control without polyol = 100%, listed as 15% Erythritol) was 0% and the “% enzymatic activity” value (62° C. for 3 hours, control without polyol = 100%, listed as 20% Erythritol) was 0%. The “% enzymatic activity” value (62° C. for 3 hours, control without polyol = 100%, listed as 25% Erythritol) was 20* %.
In the case of `OC[C@@H](O)[C@@H](O)[C@H](O)[C@H](O)CO[C@H]1O[C@H](CO)[C@@H](O)[C@H](O)[C@H]1O` [Isomalt, (2R,3R,4R,5R)-6-[[(2S,3R,4S,5S,6R)-3,4,5-Trihydroxy-6-(hydroxymethyl)-2-tetrahydropyranyl]oxy]hexane-1,2,3,4,5-pentol], the “% enzymatic activity” value (4° C., freshly made control without polyol = 100%, listed as 1% Isomalt) is reported as 105%, the “% enzymatic activity” value (4° C., freshly made control without polyol = 100%, listed as 2.5% Isomalt) is reported as 105% and the “% enzymatic activity” value (4° C., freshly made control without polyol = 100%, listed as 3% Isomalt) is reported as 106%. For the same compound, the “% enzymatic activity” value (4° C., freshly made control without polyol = 100%, listed as 5% Isomalt) was 107%, the “% enzymatic activity” value (4° C., freshly made control without polyol = 100%, listed as 10% Isomalt) was 106% and the “% enzymatic activity” value (4° C., freshly made control without polyol = 100%, listed as 15% Isomalt) was 101%. The “% enzymatic activity” value (4° C., freshly made control without polyol = 100%, listed as 20% Isomalt) was 102%, the “% enzymatic activity” value (42° C. for 3 hours, control without polyol = 100%, listed as 1% Isomalt) was 102* % and the “% enzymatic activity” value (42° C. for 3 hours, control without polyol = 100%, listed as 2.5% Isomalt) was 100* %. The “% enzymatic activity” value (42° C. for 3 hours, control without polyol = 100%, listed as 3% Isomalt) was 100* %, the “% enzymatic activity” value (42° C. for 3 hours, control without polyol = 100%, listed as 5% Isomalt) was 99* % and the “% enzymatic activity” value (42° C. for 3 hours, control without polyol = 100%, listed as 10% Isomalt) was 107* %. The “% enzymatic activity” value (42° C. for 3 hours, control without polyol = 100%, listed as 15% Isomalt) was 106* %, the “% enzymatic activity” value (42° C. for 3 hours, control without polyol = 100%, listed as 20% Isomalt) was 107* % and the “% enzymatic activity” value (52° C. for 3 hours, control without polyol = 100%, listed as 1% Isomalt) was 2%. The “% enzymatic activity” value (52° C. for 3 hours, control without polyol = 100%, listed as 2.5% Isomalt) was 3%, the “% enzymatic activity” value (52° C. for 3 hours, control without polyol = 100%, listed as 3% Isomalt) was 4* % and the “% enzymatic activity” value (52° C. for 3 hours, control without polyol = 100%, listed as 5% Isomalt) was 11* %. The “% enzymatic activity” value (52° C. for 3 hours, control without polyol = 100%, listed as 10% Isomalt) was 37* %, the “% enzymatic activity” value (52° C. for 3 hours, control without polyol = 100%, listed as 15% Isomalt) was 82* % and the “% enzymatic activity” value (52° C. for 3 hours, control without polyol = 100%, listed as 20% Isomalt) was 102* %. The “% enzymatic activity” value (62° C. for 3 hours, control without polyol = 100%, listed as 1% Isomalt) was 0%, the “% enzymatic activity” value (62° C. for 3 hours, control without polyol = 100%, listed as 2.5% Isomalt) was 0% and the “% enzymatic activity” value (62° C. for 3 hours, control without polyol = 100%, listed as 3% Isomalt) was 0%. The “% enzymatic activity” value (62° C. for 3 hours, control without polyol = 100%, listed as 5% Isomalt) was 0%, the “% enzymatic activity” value (62° C. for 3 hours, control without polyol = 100%, listed as 10% Isomalt) was 0% and the “% enzymatic activity” value (62° C. for 3 hours, control without polyol = 100%, listed as 15% Isomalt) was 12* %. The “% enzymatic activity” value (62° C. for 3 hours, control without polyol = 100%, listed as 20% Isomalt) was 6* %.
